# Several values for one entry are separate records, joined by “and”; a condition that tells them apart may be missing. Equal entries are not always repeated.
# Experiments:
# [1] = test system: Chinchillas; experiment: Noise-induced hearing loss, round window application (Example 8); assay type: in vivo, chinchilla; set-up: threshold shift, 0.5 kHz / threshold shift, 1 kHz / threshold shift, 2 kHz / threshold shift, 4 kHz / threshold shift, 8 kHz / average threshold shift, 0.5 kHz / average threshold shift, 1 kHz / average threshold shift, 2 kHz / average threshold shift, 4 kHz / average threshold shift, 8 kHz: unit not given here; conditions: for average threshold shift, 0.5 kHz / average threshold shift, 1 kHz / average threshold shift, 2 kHz / average threshold shift, 4 kHz / average threshold shift, 8 kHz: Table XIV; for threshold shift, 0.5 kHz / threshold shift, 1 kHz / threshold shift, 2 kHz / threshold shift, 4 kHz / threshold shift, 8 kHz: individual animals, listed as CH65
# Procedure: Chinchillas (N=8) were used in studies of noise-induced hearing loss. The animals' hearing sensitivity was measured using standard electrophysical techniques before the experimental manipulation. […] Animals were anesthetized, the auditory bullae were opened, and the left and right cochleas were visualized. The round window leading to the scala tympani of the cochlea was used as the access point for drug application. […] In each case, the solution was allowed to set on the round window for 30 minutes, then the auditory bullae were closed. Subsequently, the animals were exposed to 4 kHz band noise at 105 dB SPL for four hours. Following the noise exposure, the animals' hearing was tested at day 1, day 3, day 7, and day 20 to determine evoked potential threshold shifts. Permanent threshold shift was assessed at day 20. The cochleas were harvested at day 20 to allow for morphological examination of the cochleas.
# [2] = test system: Chinchillas; experiment: Noise-induced hearing loss, round window application (Example 12); assay type: in vivo, chinchilla; conditions: 4 kHz band noise at 105 dB SPL, four hours, day 1, 7, 21
# Procedure: Chinchillas (N=6) were used in studies of noise-induced hearing loss. The animals' hearing sensitivity was measured using standard electrophysical techniques before the experimental manipulation. […] Animals were anesthetized, the auditory bullae were opened, and the left and right cochleas were visualized. The round window leading to the scala tympani of the cochlea was used as the access point for drug application. […] A control solution of 3 mM DMSO in […] of saline solution was placed on the round window of the other ear. The solution was allowed to set on the round window for 30 minutes, then the auditory bullae were closed. Subsequently, the animals were exposed to 4 kHz band noise at 105 dB SPL for four hours. Following the noise exposure, the animals' hearing was tested at day 1, day 7, and day 21 to determine evoked potential threshold shifts. Permanent threshold shift was assessed at day 21.
# [3] = test system: Guinea pigs; experiment: Cisplatin-induced hearing loss; assay type: in vivo, guinea pig; conditions: subcutaneous, prior to cisplatin
# Procedure: The effects of high level noise and ototoxic drugs, such as cisplatin or the class of aminoglycosides, share several common features in the inner ear. First, the noise and/or drugs alter the free radical/antioxidant levels in the cochlea (inner ear). […] Guinea pigs (N=7) were used in studies of cisplatin-induced hearing loss. The animals' hearing sensitivity was measured using standard electrophysical techniques before the experimental manipulation. […] Animals were anesthetized and treated with cisplatin. Subsequently, the animals' hearing was tested to determine evoked potential threshold shifts.
# Animals were treated subcutaneously with KX1-004 prior to the cisplatin-induced hearing loss.
# [4] = biological target: T1, pp60^c-src (Homo sapiens, UniProt P12931); conditions: literature value; read-out: IC50 (μM), Lit; cited from earlier work
# Target sequence in this assay (P12931 whole entry, species assumed): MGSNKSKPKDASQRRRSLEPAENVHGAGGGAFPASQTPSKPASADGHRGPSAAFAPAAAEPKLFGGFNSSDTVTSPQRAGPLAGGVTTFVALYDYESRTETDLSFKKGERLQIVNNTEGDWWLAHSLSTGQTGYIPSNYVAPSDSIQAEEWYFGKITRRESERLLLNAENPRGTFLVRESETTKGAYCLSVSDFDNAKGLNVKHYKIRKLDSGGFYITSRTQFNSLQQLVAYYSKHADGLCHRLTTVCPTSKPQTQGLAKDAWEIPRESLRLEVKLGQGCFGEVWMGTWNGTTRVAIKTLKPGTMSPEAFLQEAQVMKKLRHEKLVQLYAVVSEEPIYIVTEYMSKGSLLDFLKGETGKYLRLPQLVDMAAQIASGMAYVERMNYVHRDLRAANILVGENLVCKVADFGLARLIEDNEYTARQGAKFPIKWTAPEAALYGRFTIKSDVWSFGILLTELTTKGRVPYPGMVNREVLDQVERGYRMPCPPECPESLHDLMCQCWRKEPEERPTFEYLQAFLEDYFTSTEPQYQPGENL
# [5] = biological target: T1, pp60^c-src; experiment: Src inhibition (RR-SRC phosphorylation), Cellular Mimetic assay; conditions: inhibitor 100 μM; Table IX
# Target sequence in this assay (P12931 whole entry): as the sequence (P12931 whole entry, species assumed) above
smiles,measurement,setting,value
O=C(NCc1cccc(O)c1)c1cc2cc(F)ccc2[nH]1 [KX1-004],"average threshold shift, 0.5 kHz",[1]; Day 1,3.75
same,"average threshold shift, 1 kHz",[1]; Day 1,6.875
same,"average threshold shift, 2 kHz",[1]; Day 1,25
same,"average threshold shift, 4 kHz",[1]; Day 1,42
same,"average threshold shift, 8 kHz",[1]; Day 1,22.5
same,"threshold shift, 0.5 kHz",[1]; Day 1,0 (2×) and 5 and 10
same,"threshold shift, 1 kHz",[1]; Day 1,2.5 and 20 and 0 and 5
same,"threshold shift, 2 kHz",[1]; Day 1,0 and 25 and 20 and 55
same,"threshold shift, 4 kHz",[1]; Day 1,10 and 35 and 68 and 55
same,"threshold shift, 8 kHz",[1]; Day 1,0 and 30 and 35 and 25
same,"average threshold shift, 0.5 kHz",[1]; Day 3,5.4
same,"average threshold shift, 1 kHz",[1]; Day 3,6.9
same,"average threshold shift, 2 kHz",[1]; Day 3,18
same,"average threshold shift, 4 kHz",[1]; Day 3,27
same,"average threshold shift, 8 kHz",[1]; Day 3,15
same,"threshold shift, 0.5 kHz",[1]; Day 3,5 (3×) and 0 and 12
same,"threshold shift, 1 kHz",[1]; Day 3,7.5 and 5 and 2 and 0 and 20
same,"threshold shift, 2 kHz",[1]; Day 3,0 (2×) and 15 and 40 and 35
same,"threshold shift, 4 kHz",[1]; Day 3,10 and 0 and 25 and 55 and 45
same,"threshold shift, 8 kHz",[1]; Day 3,0 (2×) and 15 (2×) and 45
same,"average threshold shift, 0.5 kHz",[1]; Day 7,8
same,"average threshold shift, 1 kHz",[1]; Day 7,6
same,"average threshold shift, 2 kHz",[1]; Day 7,15
same,"average threshold shift, 4 kHz",[1]; Day 7,24
same,"average threshold shift, 8 kHz",[1]; Day 7,18
same,"threshold shift, 0.5 kHz",[1]; Day 7,0 and 5 and 8 and 15 and 12
same,"threshold shift, 1 kHz",[1]; Day 7,0 (3×) and 15 (2×)
same,"threshold shift, 2 kHz",[1]; Day 7,0 (2×) and 15 and 40 and 20
same,"threshold shift, 4 kHz",[1]; Day 7,0 and 5 and 15 and 55 and 45
same,"threshold shift, 8 kHz",[1]; Day 7,0 (2×) and 20 and 30 and 40
same,"average threshold shift, 0.5 kHz",[1]; Day 20,3
same,"average threshold shift, 1 kHz",[1]; Day 20,1.25
same,"average threshold shift, 2 kHz",[1]; Day 20,6.25
same,"average threshold shift, 4 kHz",[1]; Day 20,9
same,"average threshold shift, 8 kHz",[1]; Day 20,3.75
same,"threshold shift, 0.5 kHz",[1]; Day 20,0 (2×) and 5 and 7
same,"threshold shift, 1 kHz",[1]; Day 20,0 (3×) and 5
same,"threshold shift, 2 kHz",[1]; Day 20,0 (2×) and 15 and 10
same,"threshold shift, 4 kHz",[1]; Day 20,0 (2×) and 11 and 25
same,"threshold shift, 8 kHz",[1]; Day 20,−5 and 5 and 0 and 15
same,"average threshold shift, 0.5 kHz",[1]; Pretest,26.6
same,"average threshold shift, 1 kHz",[1]; Pretest,24.5
same,"average threshold shift, 2 kHz",[1]; Pretest,20
same,"average threshold shift, 4 kHz",[1]; Pretest,12.4
same,"average threshold shift, 8 kHz",[1]; Pretest,4
same,"threshold shift, 0.5 kHz",[1]; Pretest,30 and 35 and 25 and 20 and 23
same,"threshold shift, 1 kHz",[1]; Pretest,22.5 and 25 (4×)
same,"threshold shift, 2 kHz",[1]; Pretest,25 (3×) and 10 and 15
same,"threshold shift, 4 kHz",[1]; Pretest,20 and 10 and 12 and 5 and 15
same,"threshold shift, 8 kHz",[1]; Pretest,10 (2×) and 0 (3×)
same,protection against the noise exposure,"[1]; in vivo, listed as CH-65",provided protection against the noise exposure
same,"average dB threshold shifts, treated ears versus control",[2],lower
same,protection against cisplatin-induced hearing loss,[3],protected against ciplatin-induced hearing loss
"CCOc1cc(/C=C(\C#N)C(N)=O)cc(CSc2ccccc2)c1O [ST-638, reference compound]",IC50,[4],18 µM
same,% Inhibition at 100 μM (std. dev.),[5],37 (+/−5) %
